# According to patent publication US11419852B2, “Beta-lactam compounds or salts thereof for use in long-acting prevention or treatment of a glucose metabolism disorder” (GLYCOLYSIS BIOMED CO., LTD., priority 2019, dated 2022):
# Marks after values point to notes of the source that are not given here.
# Legend:
# [1] = Body weight of mice recorded weekly; type: in vivo
# Description: Four to five weeks old db/db mice (BKS.Cg-Dock7^m+/+Lepr^db/JNarl) and m/m mice (BKS.Cg-Dock7^m+/Dock7^m+) were obtained from National Laboratory Animal Center ([…], Taiwan). […] PMI Nutrition International, Brentwood, Mo.) and water ad libitum. […] The mouse body weight (bw) and the amounts of water and food intake were recorded weekly for the entire study period.
# db/db mice = test: Oral glucose tolerance test (OGTT); type: in vivo; set-up: OGTT AUC: unit not given here
# Description: Four to five weeks old db/db mice (BKS.Cg-Dock7^m+/+Lepr^db/JNarl) and m/m mice (BKS.Cg-Dock7^m+/Dock7^m+) were obtained from National Laboratory Animal Center ([…], Taiwan). […] PMI Nutrition International, Brentwood, Mo.) and water ad libitum. […] Blood was sampled from the tail vein, and FPG levels were measured and recorded as the basic blood glucose levels. […] The total area under the curve (AUC) in OGTT was plotted and calculated by the Area Under Coordinates Program (StatsToDo Server, Department of Obstetrics and Gynecology, Chinese University of Hong Kong).
smiles,measurement,setting,value
"C[C@@H](O)[C@H]1C(=O)N2C(C(=O)O)=C(S[C@@H]3CN[C@H](C(=O)Nc4cccc(C(=O)O)c4)C3)[C@H](C)[C@H]12 [DMH, ertapenem]",Body weight,"[1]; Ex 2 G6 db/db, DMH i.p. 0.4 mg/g bw/day, dosing 6 weeks, week 14",45.08 ± 1.89^b
same,Body weight,"[1]; Ex 2 G6 db/db, DMH i.p. 0.4 mg/g bw/day, dosing 6 weeks, week 15",47.29 ± 1.95^b
same,Body weight,"[1]; Ex 2 G6 db/db, DMH i.p. 0.4 mg/g bw/day, dosing 6 weeks, week 16",48.79 ± 1.95^b
same,Body weight,"[1]; Ex 2 G6 db/db, DMH i.p. 0.4 mg/g bw/day, dosing 6 weeks, week 17",48.99 ± 1.87^b
same,Body weight,"[1]; Ex 2 G6 db/db, DMH i.p. 0.4 mg/g bw/day, dosing 6 weeks, week 18",50.70 ± 1.87^b
same,Body weight,"[1]; Ex 2 G6 db/db, DMH i.p. 0.4 mg/g bw/day, dosing 6 weeks, week 19",53.56 ± 1.99^b
same,Body weight,"[1]; Ex 3: db/db mice, daily dosing 3 weeks at doses of Table 10, Baseline",29.3 ± 1^b
same,Body weight,"[1]; Ex 3: db/db mice, daily dosing 3 weeks at doses of Table 10, Final",38.3 ± 1^c
same,Body weight,"[1]; Ex 3: db/db mice, daily dosing 3 weeks at doses of Table 10, Week 3",33.5 ± 1^cd
same,Body weight,"[1]; Ex 3: db/db mice, daily dosing 3 weeks at doses of Table 10, Week 6 (stopped for 3 weeks)",35.1 ± 1^b
same,Body weight,"[1]; Ex 3: db/db mice, daily dosing 3 weeks at doses of Table 10, Week 9 (stopped for 6 weeks)",40.0 ± 1^c
same,OGTT AUC vs untreated mice (DB group),"db/db mice; Ex 1, week 3, P<0.05",significantly smaller
same,Glucose concentration in OGTT vs DB group,"db/db mice; Ex 1, week 3, time points of 90 min and 120 min (FIG. 1)",significantly lower
same,OGTT AUC,"db/db mice; Ex 1: db/db mice, ertapenem i.p. 0.41 mg/g bw/day, 3 weeks",1298 ± 186
same,OGTT AUCs vs metformin-treated (G3) and untreated db/db mice (G2),"db/db mice; Ex 2, G4 and G5, weeks 6, 12, and 16, P<0.05",significantly smaller
same,Oral glucose tolerance of db/db mice after stop,"db/db mice; Ex 2, after the treatment had been stopped for 10 weeks",effectively increased
same,Oral glucose tolerance (OGT) of db/db mice,"db/db mice; Ex 2, most time points (ertapenem: weeks 6 and 12)",significantly increased
same,Level of OGTT (blood glucose),"db/db mice; Ex 2 G4 db/db, DMH i.p. 0.1 mg/g bw/day, dosing 6 weeks, Week 6, 0 min",219 ± 36 mg/dL
same,Level of OGTT (blood glucose),"db/db mice; Ex 2 G4 db/db, DMH i.p. 0.1 mg/g bw/day, dosing 6 weeks, Week 6, 15 min",866 ± 38^bc
same,Level of OGTT (blood glucose),"db/db mice; Ex 2 G4 db/db, DMH i.p. 0.1 mg/g bw/day, dosing 6 weeks, Week 6, 30 min",671 ± 62 mg/dL
same,Level of OGTT (blood glucose),"db/db mice; Ex 2 G4 db/db, DMH i.p. 0.1 mg/g bw/day, dosing 6 weeks, Week 6, 60 min",486 ± 57 mg/dL
same,Level of OGTT (blood glucose),"db/db mice; Ex 2 G4 db/db, DMH i.p. 0.1 mg/g bw/day, dosing 6 weeks, Week 6, 120 min",286 ± 44^bc
same,Level of OGTT (blood glucose),"db/db mice; Ex 2 G4 db/db, DMH i.p. 0.1 mg/g bw/day, dosing 6 weeks, Week 12, 0 min",154 ± 30^ab
same,Level of OGTT (blood glucose),"db/db mice; Ex 2 G4 db/db, DMH i.p. 0.1 mg/g bw/day, dosing 6 weeks, Week 12, 15 min",866 ± 36 mg/dL
same,Level of OGTT (blood glucose),"db/db mice; Ex 2 G4 db/db, DMH i.p. 0.1 mg/g bw/day, dosing 6 weeks, Week 12, 30 min",794 ± 60^bc
same,Level of OGTT (blood glucose),"db/db mice; Ex 2 G4 db/db, DMH i.p. 0.1 mg/g bw/day, dosing 6 weeks, Week 12, 60 min",503 ± 67 mg/dL
same,Level of OGTT (blood glucose),"db/db mice; Ex 2 G4 db/db, DMH i.p. 0.1 mg/g bw/day, dosing 6 weeks, Week 12, 120 min",372 ± 83 mg/dL
same,Level of OGTT (blood glucose),"db/db mice; Ex 2 G4 db/db, DMH i.p. 0.1 mg/g bw/day, dosing 6 weeks, Week 16, 0 min",126 ± 43^ab
same,Level of OGTT (blood glucose),"db/db mice; Ex 2 G4 db/db, DMH i.p. 0.1 mg/g bw/day, dosing 6 weeks, Week 16, 15 min",575 ± 44 mg/dL
same,Level of OGTT (blood glucose),"db/db mice; Ex 2 G4 db/db, DMH i.p. 0.1 mg/g bw/day, dosing 6 weeks, Week 16, 30 min",609 ± 39^c
same,Level of OGTT (blood glucose),"db/db mice; Ex 2 G4 db/db, DMH i.p. 0.1 mg/g bw/day, dosing 6 weeks, Week 16, 60 min",506 ± 52^c
same,Level of OGTT (blood glucose),"db/db mice; Ex 2 G4 db/db, DMH i.p. 0.1 mg/g bw/day, dosing 6 weeks, Week 16, 120 min",270 ± 65^bd
same,Level of OGTT (blood glucose),"db/db mice; Ex 2 G4 db/db, DMH i.p. 0.1 mg/g bw/day, dosing 6 weeks, Week 18, 0 min",263 ± 58 mg/dL
same,Level of OGTT (blood glucose),"db/db mice; Ex 2 G4 db/db, DMH i.p. 0.1 mg/g bw/day, dosing 6 weeks, Week 18, 15 min",785 ± 57 mg/dL
same,Level of OGTT (blood glucose),"db/db mice; Ex 2 G4 db/db, DMH i.p. 0.1 mg/g bw/day, dosing 6 weeks, Week 18, 30 min",894 ± 49 mg/dL
same,Level of OGTT (blood glucose),"db/db mice; Ex 2 G4 db/db, DMH i.p. 0.1 mg/g bw/day, dosing 6 weeks, Week 18, 60 min",735 ± 47 mg/dL
same,Level of OGTT (blood glucose),"db/db mice; Ex 2 G4 db/db, DMH i.p. 0.1 mg/g bw/day, dosing 6 weeks, Week 18, 120 min",447 ± 53 mg/dL
same,OGTT AUC,"db/db mice; Ex 2 G4 db/db, DMH i.p. 0.1 mg/g bw/day, dosing 6 weeks, week 6",1033 ± 87^b
same,OGTT AUC,"db/db mice; Ex 2 G4 db/db, DMH i.p. 0.1 mg/g bw/day, dosing 6 weeks, week 12",1096 ± 119^b
same,OGTT AUC,"db/db mice; Ex 2 G4 db/db, DMH i.p. 0.1 mg/g bw/day, dosing 6 weeks, week 16",902 ± 85^b
same,OGTT AUC,"db/db mice; Ex 2 G4 db/db, DMH i.p. 0.1 mg/g bw/day, dosing 6 weeks, week 18",1339 ± 80^b
same,Level of OGTT (blood glucose),"db/db mice; Ex 2 G5 db/db, DMH i.p. 0.2 mg/g bw/day, dosing 6 weeks, Week 6, 0 min",166 ± 21 mg/dL
same,Level of OGTT (blood glucose),"db/db mice; Ex 2 G5 db/db, DMH i.p. 0.2 mg/g bw/day, dosing 6 weeks, Week 6, 15 min",750 ± 57 mg/dL
same,Level of OGTT (blood glucose),"db/db mice; Ex 2 G5 db/db, DMH i.p. 0.2 mg/g bw/day, dosing 6 weeks, Week 6, 30 min",618 ± 68 mg/dL
same,Level of OGTT (blood glucose),"db/db mice; Ex 2 G5 db/db, DMH i.p. 0.2 mg/g bw/day, dosing 6 weeks, Week 6, 60 min",425 ± 63 mg/dL
same,Level of OGTT (blood glucose),"db/db mice; Ex 2 G5 db/db, DMH i.p. 0.2 mg/g bw/day, dosing 6 weeks, Week 6, 120 min",316 ± 92^bc
same,Level of OGTT (blood glucose),"db/db mice; Ex 2 G5 db/db, DMH i.p. 0.2 mg/g bw/day, dosing 6 weeks, Week 12, 0 min",191 ± 42^bc
same,Level of OGTT (blood glucose),"db/db mice; Ex 2 G5 db/db, DMH i.p. 0.2 mg/g bw/day, dosing 6 weeks, Week 12, 15 min",879 ± 45 mg/dL
same,Level of OGTT (blood glucose),"db/db mice; Ex 2 G5 db/db, DMH i.p. 0.2 mg/g bw/day, dosing 6 weeks, Week 12, 30 min",790 ± 40^bc
